Like-named read-outs stand apart in the source and are kept apart here.
How the values were obtained:
[1] = test system: Leishmania donovani promastigotes expressing firefly luciferase; assay: antileishmanial luciferase assay on transgenic promastigotes; assay type: cell-based
Method: Antileishmanial activity of the compounds was tested on a transgenic cell line of Leishmania donovani promastigotes expressing firefly luciferase.^29a In a 96 well microplate assay, compounds with appropriate dilution were added to the leishmania promastigotes culture (2×10^6 cell/mL). The plates were incubated at 26° C. for 72 hours and growth of leishmania promastigotes was determined by luciferase assay with Steady Glo® reagent (Promega, USA). Pentamidine and Amphotericin B were used as standard antileishmanial agents. The analogues were simultaneously tested for cytotoxicity on VERO cells (monkey kidney fibroblast) by Neutral Red assay.^29b IC50 values for the compounds were computed from the growth inhibition curve.

[2] = test system: P. falciparum D6 (Sierra Leone); assay: antimalarial parasite LDH (pLDH) assay, D6; assay type: cell-based, Plasmodium falciparum; details: pLDH assay, Table 5; read-out: P. falciparum (D6 Clone) IC50
Method: (§1) The Thad Cochran National Center for Natural Products Research (University of Mississippi) in vitro antimalarial screen was conducted using an enzyme assay for detection of P. falciparum (see procedure below). This assay is based on the observation that lactate dehydrogenase (LDH) of P. falciparum is distinguishable from host LDH activity. P. falciparum LDH rapidly uses 3-acetyl pyridine nicotinamide adenine dinucleotide (APAD) as a coenzyme in the biotransformation of […].^38 The same process is carried out in human red blood cells at a very slow rate.
(§2) The “Antimalarial parasite LDH assay” is currently being conducted according the following procedure: prepare a suspension of RBC with a 2% parasitemia and 2% hematocrit in malaria complete medium. Dispense 200 μl aliquots of this suspension into each well of a 96 well microtiter plate. Add 10 μl volumes of the drugs to be tested in duplicate to the appropriate wells. Place the plates into humidified chamber and flush the cultures with a gas mixture consisting of 90% N2, 5% O2, and 5% CO2. Transfer the chamber containing the plates to an incubator, and incubate for 48 hours at 37° C. After 48 hours add 100 μl aliquots of the Malstat™ reagent to each well of a new 96-well microtiter plate Resuspend the cultures from the assay plate by mixing each well up and down several times. Remove 20 μl from each well of the resuspend culture and add to the plate containing the Malstat™ reagent. Incubate the plates at room temperature for 30 minutes. After 30 minutes, add to each well 20 μl of the 1:1 mixture of the NBT/PES solution (2 mg/ml and 0.1 mg/ml, respectively). Incubate the plates in the dark for 1 hour. Add 100 μl of 5% acetic acid solution to stop the reaction. The plate is then read at an endpoint of approximately 650 nm. The dose response curves are generated using Microsoft Excel.
(§3) Antimalarial activity of the analogues was determined in vitro on chloroquine sensitive (D)6, Sierra Leone) and resistant (W2, IndoChina) strains of Plasmodium falciparum. The 96 well microplate assay is based on evaluation of the effect of the compounds on the growth of asynchronous cultures of P. falciparum, determined by the assay of parasite lactate dehydrogenase (pLDH) activity.^28 The appropriate dilutions of the compounds were prepared in DMSO or RPMI-1640 medium and added to the cultures of P. falciparum (2% hematocrit, 2% parasitemia) set up in clear flat bottomed 96 well plates. The plates were placed into the humidified chamber and flushed with a gas mixture of 90% N2, 5% CO2 & 5% O2. The cultures were incubated at 37° C. for 48 hours. Growth of the parasite in each well was determined by pLDH assay using Malstat® reagent. The medium and RBC controls were also set-up in each plate. The standard antimalarial agents, chloroquine and artemisinin, were used as the positive controls while DMSO was tested as the negative control.

[3] = test system: P. falciparum W2 (IndoChina); assay: antimalarial parasite LDH (pLDH) assay, W2; assay type: cell-based, Plasmodium falciparum; details: pLDH assay, Table 5; read-out: P. falciparum (W2 Clone) IC50
Method: as §1, §2
as §3, with “plate.” for “plate. The standard antimalarial agents, chloroquine and artemisinin, were used as the positive controls while DMSO was tested as the negative control.”

P. yoelli ssp. NS = assay: in vivo 4-day antimalarial test in mice, P. yoelli ssp. NS
Method: (§4) The parasitemia is determined on the day following the last treatment—day 4 to determine qualitatively the presence and degree of activity at the screening dose.

P. berghei N = assay: in vivo Peter's 4-day antimalarial test in mice, P. berghei N
Method: as §4

[4] = Table 1 (artemisinin analogues), NA = not active up to 125 μg/ml, read-out: Antileishmanial activity IC50
[5] = Table 4, NA = not active up to 125 μg/ml, read-out: IC50
[6] = Table 3 (continues Table 1), read-out: Antileishmanial activity IC50
[7] = mice, oral, 4-day test, unit not given
[8] = mice, subcutaneous, 4-day test, unit not given

In the case of `CCCC1C(=O)OC2OC3(C)CCC4C(C)CCC1C24OO3` (stereo not shown) [Compound 63], the IC50 [1, 4] is reported as 16.8 µM.
Work on `CC1CCC2C(CCCCc3ccccc3)C(=O)OC3OC4(C)CCC1C32OO4` (stereo not shown) [Compound 70] yielded an IC50 [1, 4] of 7.5 µM.
`CC1CCC2CC(=O)OC3OC4(C)CCC1C23OO4` (stereo not shown) [Compound 60] showed an IC50 [1, 4] of 242 µM.
Work on `CCCCC1C(=O)OC2OC3(C)CCC4C(C)CCC1C24OO3` (stereo not shown) [Compound 65] yielded an IC50 [1, 4] of 12.3 µM.
Molecule `CC1CCC2CC(=O)N(Cc3ccc(Cl)cc3)C3OC4(C)CCC1C23OO4` (stereo not shown) [Compound 109] has an IC50 [1, 5] of 25.5 µM.
Work on `C[C@@H]1[C@H](O)[C@@H](C)/C=C/C=C/C=C/C=C/C=C/C=C/C=C/[C@H](O[C@@H]2O[C@H](C)[C@@H](O)[C@H](N)[C@@H]2O)C[C@@H]2O[C@](O)(C[C@@H](O)C[C@@H](O)[C@H](O)CC[C@@H](O)C[C@@H](O)CC(=O)O[C@H]1C)C[C@H](O)[C@H]2C(=O)O` [Amphotericin B, reference compound] yielded an IC50 [1, 6] of 0.01 µM.
`CC1CCC2C(CCCc3ccccc3)C(=O)OC3OC4(C)CCC1C32OO4` (stereo not shown) [Compound 27] was tested, and the IC50 [2] was 0.0104 µM, the IC50 [1, 4] was 45.3 µM and the IC50 [3] was 0.0034 µM.
Molecule `COc1ccc(CCCC2COC3OC4(C)CCC5C(C)CCC2C35OO4)cc1` (stereo not shown) [Compound 99] has an IC50 [1, 6] of 17.4 µM.
`C[C@@H]1CC[C@@H]([C@@H](C)CO)[C@@]23C=C[C@@](C)(CC[C@@H]12)OO3` [Compound 112] gave an IC50 ([1]; Leishmania donovani) of 131 µM.
`CC1CCC2C(CCCc3ccc(Cl)c(Cl)c3)COC3OC4(C)CCC1C32OO4` (stereo not shown) [Compound 97] gave an IC50 [1, 6] of 2.3 µM.
Work on `CC1CCC2C(CCCc3ccc(Cl)cc3)C(=O)OC3OC4(C)CCC1C32OO4` (stereo not shown) [Compound 72] yielded an IC50 [1, 4] of 11.9 µM.
Molecule `CC1CCC2C(C)(C)C(=O)OC3OC4(C)CCC1C32OO4` (stereo not shown) [Compound 62] has an IC50 [1, 4] of 101 µM.
`CC1CCC2C(CCCc3cc(C(F)(F)F)cc(C(F)(F)F)c3)COC3OC4(C)CCC1C32OO4` (stereo not shown) [Compound 101] showed an IC50 [1, 6] of 0.3 µM.
Work on `CC1CCC2CC(=O)N(Cc3ccccc3)C3OC4(C)CCC1C23OO4` (stereo not shown) [Compound 108] yielded an IC50 [1, 5] of 56 µM.
`CC1CCC2C(CCC#N)C(=O)OC3OC4(C)CCC1C32OO4` (stereo not shown) [Compound 52] showed an IC50 [2] of 0.0149 µM, an IC50 [1, 4] of 38.9 µM and an IC50 [3] of 0.0149 µM.
For `CC1CCC2C(CCCc3ccc(O)cc3)C(=O)OC3OC4(C)CCC1C32OO4` (single isomer, unassigned; (+)) [Compound 33], the IC50 [2] was 0.0079 µM, the IC50 [1, 4] was 44.7 µM and the IC50 [3] was 0.0047 µM.
With `CCCCN1C(=O)CC2CCC(C)C3CCC4(C)OOC23C1O4` (stereo not shown) [Compound 105] the IC50 [1, 5] was 44.5 µM.
“(+)-Octahydro-3,6α-dimethyl-3,12-epoxy-9β-(3′-(trifluoromethyl)propyl)-12H-pyrano[4,3j]-1,2-benzodioxepin-10(3H)-one [Compound 28]” gave an IC50 [2] of 0.0439 µM, an IC50 [1, 4] of 1.4 µM and an IC50 [3] of 0.0508 µM.
Molecule `CC1CCC2C(CCCc3ccc(Cl)cc3)COC3OC4(C)CCC1C32OO4` (stereo not shown) [Compound 95] has an IC50 [1, 6] of 4.9 µM.
For `C=CCC1C(=O)OC2OC3(C)CCC4C(C)CCC1C24OO3` (stereo not shown) [Compound 64], the IC50 [1, 4] was 17.8 µM.
“(+)-Octabydro-3,6α-dimethyl-3,12-epoxy-9β-(3′-(m-fluorophenyl)propyl)-12H-pyrano[4,3j]-1,2-benzodioxepin-10(3H)-one [Compound 30]” gave an IC50 [2] of 0.0301 µM, an IC50 [1, 4] of 53.8 µM and an IC50 [3] of 0.02 µM.
Molecule `CC1CCC2CC(=O)N(CCc3ccccc3)C3OC4(C)CCC1C23OO4` (stereo not shown) [Compound 110] has an IC50 [1, 5] of 32.3 µM.
`CC1CCC2C(CCCc3ccc(C(F)(F)F)cc3)COC3OC4(C)CCC1C32OO4` (stereo not shown) [Compound 98] was tested, and the IC50 [1, 6] was 1.8 µM.
In the case of `COc1ccc(CCCC2C(=O)OC3OC4(C)CCC5C(C)CCC2C35OO4)cc1` (stereo not shown) [Compound 73], the IC50 [1, 4] is reported as 12 µM.
For `CC1CCC2C(CCCc3cccc(F)c3)C(=O)OC3OC4(C)CCC1C32OO4` (stereo not shown) [Compound 71], the IC50 [1, 4] was 3.7 µM.
`CC1CCC2C(CCCc3ccccc3)C(=O)OC3OC4(C)CCC1C32OO4` (stereo not shown) [Compound 26] was tested, and the IC50 [2] was 0.0047 µM, the IC50 [1, 4] was 11.6 µM and the IC50 [3] was 0.0013 µM.
`N=C(N)c1ccc(OCCCCCOc2ccc(C(=N)N)cc2)cc1` [Pentamidine, reference compound] showed an IC50 ([1]; Leishmania donovani, read-out: Antileishmanial activity IC50) of 1.35 µM.
For “(+)-Octahydro3,6α-dimethyl-3,12-epoxy-9β-(3′-(3,5-difluorophenyl)propyl)-12H-pyrano[4,3j)-1,2-benzodioxepin-10(3H)-one [Compound 34]”, the IC50 [2] was 0.0188 µM, the IC50 [1, 4] was 14.4 µM and the IC50 [3] was 0.016 µM.
`CC1CCC2CC(=O)N(CC(=O)OC(C)(C)C)C3OC4(C)CCC1C23OO4` (stereo not shown) [Compound 107] was tested, and the IC50 [1, 5] was 27.5 µM.
With `CC1CCC2C(CCCc3cccc(Cl)c3)COC3OC4(C)CCC1C32OO4` (stereo not shown) [Compound 96] the IC50 [1, 6] was 3.7 µM.
Work on `C[C@@H]1CC[C@H]2[C@@H](C)C(=O)O[C@@H]3O[C@@]4(C)CC[C@@H]1[C@]32OO4` [Artemisinin, artemisinin] yielded an IC50 [2] of 0.017 µM and an IC50 [1, 4] of 124 µM.
In the case of `CC1CCC2C(CCCc3cc(F)cc(F)c3)COC3OC4(C)CCC1C32OO4` (stereo not shown) [Compound 100], the IC50 [1, 6] is reported as 11 µM.
In the case of `CC1CCC2C(CCCc3cc(F)cc(F)c3)C(=O)OC3OC4(C)CCC1C32OO4` (stereo not shown) [Compound 74], the IC50 [1, 4] is reported as 49.7 µM.
In the case of `CC1CCC2C(C)COC3OC4(C)CCC1C32OO4` (stereo not shown) [Compound 94], the IC50 [1, 6] is reported as 46.6 µM.
For `C[C@H]1[C@H](OC(=O)CCC(=O)[O-])O[C@@H]2O[C@@]3(C)CC[C@H]4[C@H](C)CC[C@@H]1[C@@]24OO3.[Na+]` [Sodium artesunate, sodium artesunate, reference compound], the “% Suppression” value (P. yoelli ssp. NS; strain NS, route PO) was 56.5%, the ED50 (P. yoelli ssp. NS; strain NS, route PO) was less than 10 mg/kg × 4 and the ED90 (P. yoelli ssp. NS; strain NS, route PO) was greater than 10 mg/kg × 4. For the same molecule, the P. yoelli ssp. NS (S.C.) ED50 (P. yoelli ssp. NS; subcutaneous, unit inferred) was 5.3 mg/kg, the P. yoelli ssp. NS (S.C.) ED90 (P. yoelli ssp. NS; subcutaneous, unit inferred) was 23.3 mg/kg and the “P. berghei N P.O. ED50” value (P. berghei N; [7]) was 2.4. The “P. berghei N P.O. ED90” value (P. berghei N; [7]) was 13.0, the “P. berghei N S.C. ED50” value (P. berghei N; [8]) was 1.5 and the “P. berghei N S.C. ED90” value (P. berghei N; [8]) was 6.3. The “% Suppression” value (P. berghei N; strain N, route PO) was 77.2%, the ED50 (P. berghei N; strain N, route PO) was less than 10 mg/kg × 4 and the ED90 (P. berghei N; strain N, route PO) was greater than 10 mg/kg × 4.
In the case of `CC1CCC2C(CCCc3ccc(N(C)C)cc3)COC3OC4(C)CCC1C32OO4` (stereo not shown) [Compound 43a], the IC50 [2] is reported as 0.0165 µM, the IC50 [1, 6] is reported as 36 µM and the IC50 [3] is reported as 0.0143 µM.
